Read-outs that look alike come from different tables or passages of the source.
What was measured:
MFM-223 cells = assay: In vitro cytotoxicity assay (CellTiter-Glo 2.0), MFM-223 cells; assay type: cell-based, human; conditions: for Max % Kill: MFM-223, up to 20 nM
Protocol: (§1) To test the ability of anti-FGFR2 antibody drug conjugates (ADCs) disclosed herein to kill human cell lines, an in vitro cytotoxicity assay was performed. In vitro cytotoxicity of the anti-FGFR2 ADCs, isotype control ADCs, and reference free payloads were evaluated using the CellTiter-Glo 2.0 Assay Kit (Promega, Cat #G9243), in which the quantity of ATP present is used to determine the number of viable cells in culture. The payloads Maytansinoid 1A, Maytansinoid 1A* (a cell permeable equivalent of Maytansinoid 1A), and Tubulysin 1A were tested as free payloads, and the unconjugated antibodies, including comparator antibodies, were used as controls.
(§2) Five-fold serial dilutions of anti-FGFR2 ADCs or isotype control ADCs were prepared in dilution media (Optimem+0.1% BSA) and added to cells at final concentrations ranging from 20 nM to 0.051 pM (concentrations were corrected for the DAR and are dosed based on the effective payload concentration). Five-fold serial dilutions of free payloads were prepared in 100% DMSO, transferred to fresh dilution media, and then added to the cells at a final constant DMSO concentration of 0.2% and final payload concentrations ranging from 20 nM to 0.051 pM. The last well in each dilution series served as an untreated control and included media alone or media plus 0.2% DMSO and was plotted as a continuation of the 5-fold serial dilution. Six days later, 100 uL of CellTiter Glo 2.0 was added to each well, plates were mixed for 2 minutes on an orbital shaker, and plates were incubated at room temperature for 10 minutes. Relative light units (RLUs) were measured on an Envision luminometer (Perkin Elmer) and cell viability was expressed as a percentage of the untreated (100% viable) cells. IC50 values were determined using a four-parameter logistic equation over a 10-point dose response curve (GraphPad Prism). The maximum % kill was also determined for each test article as follows: 100−minimum percent viability.

NCI-H716 cells = assay: In vitro cytotoxicity assay (CellTiter-Glo 2.0), NCI-H716 cells; assay type: cell-based, human; conditions: for Max % Kill: NCI-H716, up to 20 nM
Protocol: as §1, §2

SNU-16 cells [1] = assay: In vitro cytotoxicity assay (CellTiter-Glo 2.0), SNU-16 cells; assay type: cell-based, human; conditions: for Max % Kill: SNU-16, up to 20 nM
Protocol: as §1, §2

[2] = system: SNU-16, MFM-223, NCI-H716, or IM-9 cells; assay: In vitro cytotoxicity assay, several cell lines; assay type: cell-based, human; conditions: for IC50: Homo sapiens, read-out: IC50 values
Protocol: as §1
as §2, with “Five-fold” for “Five-fold serial dilutions of anti-FGFR2 ADCs or isotype control ADCs were prepared in dilution media (Optimem+0.1% BSA) and added to cells at final concentrations ranging from 20 nM to 0.051 pM (concentrations were corrected for the DAR and are dosed based on the effective payload concentration). Five-fold”
A comparator anti-FGFR2 ADC that recognizes both FGFR2b and FGFR2c and is conjugated to an auristatin payload (Comp2-BAY-LP) was also tested for cytotoxicity.

NALM-6 cells = assay: In vitro bystander assay, NALM-6 monoculture; assay type: cell-based
Protocol: as §2, with “The last well in each dilution series served as an untreated control and included media alone or media plus 0.2% DMSO and was plotted as a continuation of the 5-fold serial dilution. Six days later, 100 uL of CellTiter Glo 2.0 was added to each well, plates were mixed for 2 minutes on an orbital shaker, and plates were incubated at room temperature for 10 minutes.” left out
(§3) The ability of the anti-FGFR2 ADCs to induce cytotoxicity in FGFR2 negative cells through release of the payload in FGFR2 positive cells, i.e., bystander activity, was also assessed. […] Cytotoxicity was assessed as described previously for tumor cell lines except that three-fold serial dilutions were performed for all test articles with concentrations ranging from 100 nM to 15.2 pM, and cells were incubated with test articles for 5 days.

SNU-16 + NALM-6 Cells = assay: In vitro bystander assay, SNU-16 + NALM-6 coculture (1:1); assay type: cell-based
Protocol: as §2, with “The last well in each dilution series served as an untreated control and included media alone or media plus 0.2% DMSO and was plotted as a continuation of the 5-fold serial dilution. Six days later, 100 uL of CellTiter Glo 2.0 was added to each well, plates were mixed for 2 minutes on an orbital shaker, and plates were incubated at room temperature for 10 minutes.” left out
as §3

IM-9 cells = assay: In vitro cytotoxicity assay (CellTiter-Glo 2.0), IM-9 cells; assay type: cell-based, human; conditions: for Max % Kill: IM-9, up to 20 nM
Protocol: as §1, §2

SNU-16 cells [3] = assay: In vitro bystander assay, SNU-16 monoculture; assay type: cell-based, human
Protocol: as §2, with “The last well in each dilution series served as an untreated control and included media alone or media plus 0.2% DMSO and was plotted as a continuation of the 5-fold serial dilution. Six days later, 100 uL of CellTiter Glo 2.0 was added to each well, plates were mixed for 2 minutes on an orbital shaker, and plates were incubated at room temperature for 10 minutes.” left out
as §3

[4] = minimum tolerated dose below the therapeutic threshold estimated preclinically; trial terminated early; cited from earlier work
FGFR2 positive tumors = conditions: cited from earlier work
hFGFR2b.mmh = molecular target: T1, hFGFR2b.mmh (Homo sapiens, UniProt P21802); assay: Biacore surface plasmon resonance binding kinetics to hFGFR2b.mmh; conditions: 25° C.
T1 construct: myc-myc-hexahistidine (MMH) (C); made in house
Protocol: The Biacore sensor surface was derivatized by amine coupling with a monoclonal mouse anti-human Fc antibody (REGN2567 or Jackson Cat. […] Human FGFR2b and Human FGFR2c were prepared in-house expressing a C-terminal myc-myc-hexahistidine tag ([…] NO: 57; […] NO: 58). […] Association of hFGFR2b-MMH or hFGFR2c-MMH to each of the captured ADCs and monoclonal antibodies was monitored for 4 minutes. Subsequently, dissociation was monitored for 10 minutes in HBS-EP running buffer. Anti-human Fc surface was regenerated by a brief injection of 20 mM H3PO4. All binding kinetic experiments were performed at 25° C. […] All sensorgrams were double referenced by subtracting buffer injection sensorgram signal from the corresponding analyte sensorgram, thereby removing artifacts caused by dissociation of the antibody from the capture surface. […] [formula]

hFGFR2c.mmh = molecular target: T2, hFGFR2c.mmh (Homo sapiens, UniProt P21802); assay: Biacore surface plasmon resonance binding kinetics to hFGFR2c.mmh; conditions: 25° C.
T2 construct: myc-myc-hexahistidine (MMH) (C); made in house
Protocol: The equilibrium dissociation constants (KD values) for hFGFR2b.mmh binding to anti-FGFR2 antibodies conjugated with Tubulysin (“tubulysin 1ALP”), Auristatin (“auristatin LP1”), or mc-VC-PAB-NMe-C3-May (“maytansinoid 1ALP”) were determined using a real-time surface plasmon resonance biosensor assay on a Biacore 2000 or a Biacore 4000 instrument. The Biacore sensor surface was derivatized by amine coupling with a monoclonal mouse anti-human Fc antibody (REGN2567 or Jackson Cat. No #109-005-098) to capture anti-FGFR2 ADC and parent unmodified antibodies expressed with human constant regions. Biacore binding studies were performed in HBS-EP running buffer (0.01M HEPES pH 7.4, 0.15M NaCl, 3 mM EDTA, 0.05% v/v Surfactant P20). […] Association of hFGFR2b-MMH or hFGFR2c-MMH to each of the captured ADCs and monoclonal antibodies was monitored for 4 minutes. Subsequently, dissociation was monitored for 10 minutes in HBS-EP running buffer. […] Kinetic association (ka) and dissociation (kd) rate constants were determined by fitting the real-time sensorgrams to a 1:1 binding model using Scrubber 2.0c curve fitting software. […] Binding dissociation equilibrium constants (KD) and dissociative half-lives (t½) were calculated from the kinetic rate constants as: […]

T1 sequence (P21802 with tags, fused parts or gaps isoform P21802-3): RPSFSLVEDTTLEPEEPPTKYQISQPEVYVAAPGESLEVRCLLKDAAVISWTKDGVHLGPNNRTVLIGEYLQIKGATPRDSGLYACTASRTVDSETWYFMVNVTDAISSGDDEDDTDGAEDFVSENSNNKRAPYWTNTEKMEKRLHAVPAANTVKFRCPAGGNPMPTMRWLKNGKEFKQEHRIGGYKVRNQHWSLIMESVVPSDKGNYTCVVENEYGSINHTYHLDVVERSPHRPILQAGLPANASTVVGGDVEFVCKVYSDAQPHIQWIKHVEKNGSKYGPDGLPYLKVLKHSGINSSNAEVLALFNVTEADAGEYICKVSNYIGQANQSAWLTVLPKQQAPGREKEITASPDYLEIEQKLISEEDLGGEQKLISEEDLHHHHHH
T2 sequence (P21802 with tags, fused parts or gaps): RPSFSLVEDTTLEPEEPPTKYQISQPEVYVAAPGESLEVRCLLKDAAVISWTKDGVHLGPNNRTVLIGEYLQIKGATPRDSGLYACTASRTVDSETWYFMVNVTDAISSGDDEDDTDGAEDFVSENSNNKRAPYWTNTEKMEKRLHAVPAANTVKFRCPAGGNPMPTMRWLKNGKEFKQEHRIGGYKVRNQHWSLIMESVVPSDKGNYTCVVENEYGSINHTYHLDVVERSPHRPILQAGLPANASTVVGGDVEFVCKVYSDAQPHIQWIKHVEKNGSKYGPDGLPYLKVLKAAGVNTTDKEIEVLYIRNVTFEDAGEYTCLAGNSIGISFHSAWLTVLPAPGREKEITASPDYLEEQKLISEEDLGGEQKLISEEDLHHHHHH

C#CCCCON(C(=O)[C@@H](NC(=O)[C@H]1CCCCN1C)[C@@H](C)CC)[C@H](C[C@@H](OC(C)=O)c1nc(C(=O)N[C@@H](Cc2ccc(N)cc2)CC(C)(C)C(=O)O)cs1)C(C)C [Tubulysin 1A]
IC50 (MFM-223 cells; Homo sapiens, MFM-223, 144 h): 0.00376 nM
Max % Kill (MFM-223 cells; 6 days): 89.7%
IC50 (NCI-H716 cells; Homo sapiens, NCI-H716, 144 h): 0.0743 nM
Max % Kill (NCI-H716 cells; 6 days): 84.9%
IC50 (SNU-16 cells [1]; Homo sapiens, SNU-16, 144 h): 0.00369 nM
Max % Kill (SNU-16 cells [1]; 6 days): 95.1%
IC50 [2]: 0.00369 to 0.0743 nM
IC50 (NALM-6 cells; Homo sapiens, NALM-6, 120 h): 0.0709 nM
Max % Kill (NALM-6 cells; NALM-6 monoculture, 5 days): 99.9%
IC50 (SNU-16 + NALM-6 Cells; 120 h): 0.166 nM
Max % Kill (SNU-16 + NALM-6 Cells; SNU-16 + NALM-6 1:1 coculture, 5 days): 99.5%
IC50 (IM-9 cells; Homo sapiens, IM-9, 144 h): 0.0212 nM
Max % Kill (IM-9 cells; 6 days): 94.6%
IC50 (SNU-16 cells [3]; Homo sapiens, SNU-16, 120 h): 0.0184 nM
Max % Kill (SNU-16 cells [3]; SNU-16 monoculture, 5 days): 99.3%

CNCCC(=O)N(C)[C@@H](C)C(=O)O[C@H]1CC(=O)N(C)c2cc(cc(OC)c2Cl)C/C(C)=C/C=C/[C@@H](OC)[C@@]2(O)C[C@H](OC(=O)N2)[C@@H](C)[C@@H]2O[C@@]12C [maytansinoid 1A]
IC50 (MFM-223 cells; Homo sapiens, MFM-223, 144 h, read-out: IC50): > 20 nM
Max % Kill (MFM-223 cells; 6 days): 18.1%
IC50 (NCI-H716 cells; Homo sapiens, 144 h, NCI-H716 (low FGFR2b, high FGFR2c), 6 days, read-out: IC50): > 20 nM
Max % Kill (NCI-H716 cells; 6 days): 6.4%
IC50 (SNU-16 cells [1]; Homo sapiens, 144 h, SNU-16 (FGFR2b positive), 6 days, read-out: IC50): > 20 nM
Max % Kill (SNU-16 cells [1]; 6 days): 9.2%
IC50 ([2]; all tested cells, lower end of range, upper end >20 nM): ≥ 4.63 nM
IC50 (IM-9 cells; Homo sapiens, 144 h, IM-9 (non-FGFR2 expressing), 6 days, read-out: IC50): > 20 nM
Max % Kill (IM-9 cells; 6 days): 3.7%

B1: Aprutumab ixodotin: FGFR2 antibody conjugated to auristatin (conjugate, chains of the INN, looked up)
VH: EVQLLESGGGLVQPGGSLRLSCAASGFTFSSYAMSWVRQAPGKGLEWVSAISGSGTSTYYADSVKGRFTISRDNSKNTLYLQMNSLRAEDTAVYYCARVRYNWNHGDWFDPWGQGTLVTVSS
VL: QSVLTQPPSASGTPGQRVTISCSGSSSNIGNNYVSWYQQLPGTAPKLLIYENYNRPAGVPDRFSGSKSGTSASLAISGLRSEDEADYYCSSWDDSLNYWVFGGGTKLTVL
modifications: auristatin payload conjugate
notes: FGFR2 antibody conjugated to auristatin
tolerability in clinical testing [4]: poorly tolerated

B2: Bemarituzumab: anti-FGFR2 therapy (antibody, chains of the INN, looked up, V domains shown)
VH: QVQLVQSGAEVKKPGSSVKVSCKASGYIFTTYNVHWVRQAPGQGLEWIGSIYPDNGDTSYNQNFKGRATITADKSTSTAYMELSSLRSEDTAVYYCARGDFAYWGQGTLVTVSS
VL: DIQMTQSPSSLSASVGDRVTITCKASQGVSNDVAWYQQKPGKAPKLLIYSASYRYTGVPSRFSGSGSGTDFTFTISSLQPEDIATYYCQQHSTTPYTFGQGTKLEIK
treatment outcome (FGFR2 positive tumors): improvements in early survival and advanced disease

B3: Comp1: Comparator (Five Prime Therapeutics): humanized anti-FGFR2b isoform antibody of Catenacci et al. (Bemarituzumab, FPA144) (antibody, chains of the INN, looked up, V domains shown)
VH: B2 VH
VL: B2 VL
IC50 (MFM-223 cells; MFM-223 (FGFR2b positive), 6 days, read-out: IC50): > 20 nM
Max % Kill (MFM-223 cells; 6 days): 0.8%
IC50 (NCI-H716 cells; NCI-H716 (low FGFR2b, high FGFR2c), 6 days, read-out: IC50): > 20 nM
Max % Kill (NCI-H716 cells; 6 days): 9.9%
Kd (hFGFR2b.mmh): 60.8 nM
ka (hFGFR2b.mmh): 77400 M⁻¹ s⁻¹
kd (hFGFR2b.mmh): 0.00471 s⁻¹
Antigen Bound (RU) (hFGFR2b.mmh; antibody or ADC captured on anti-human Fc surface): 68.3 RU
t1/2 (hFGFR2b.mmh; dissociative half-life): 2.5 min
IC50 (SNU-16 cells [1]; SNU-16 (FGFR2b positive), 6 days, read-out: IC50): > 20 nM
Max % Kill (SNU-16 cells [1]; 6 days): 0.0%
EC50 ([2]; all tested lines, unconjugated antibodies): > 20 nM
Kd (hFGFR2c.mmh): > 30 nM
Antigen Bound (RU) (hFGFR2c.mmh; antibody captured on anti-human Fc surface): 0.6 RU
IC50 (IM-9 cells; IM-9 (non-FGFR2 expressing), 6 days, read-out: IC50): > 20 nM
Max % Kill (IM-9 cells; 6 days): 3.8%

Source: patent publication US11866502B2, “Anti-FGFR2 antibodies and methods of use thereof” (Regeneron Pharmaceuticals, Inc., priority 2020, dated 2024)
